Where two headings read alike, the source gives them in different places. Starred links: 1 amine or outer side, 2 acyl side, 3 side chain; linkers in the order of their positions; H or OH if unused. Non-standard residues stand in square brackets, D forms with d. Residues, ends and D or L forms follow the SMILES beside them. *: point of attachment. dBip = N[C@H](Cc1ccc(-c2ccccc2)cc1)C(=O)O; Oic = O=C(O)[C@@H]1C[C@@H]2CCCC[C@@H]2N1; Phe(4-Cl) = N[C@@H](Cc1ccc(Cl)cc1)C(=O)O; Phe(4-I) = N[C@@H](Cc1ccc(I)cc1)C(=O)O; γGlu = O=C(O)[C@H](CCC(=O)[*:2])N[*:1]; d(β3hF) = N[C@@H](CC(=O)O)Cc1ccccc1; NMeR = CN[C@@H](CCCNC(=N)N)C(=O)O; Palmitoyl = CCCCCCCCCCCCCCCC(=O)*; Tridecanoyl = CCCCCCCCCCCCC(=O)*; hArg = N=C(N)NCCCC[C@H](N)C(=O)O; Cha = N[C@@H](CC1CCCCC1)C(=O)O; NMeL = CN[C@@H](CC(C)C)C(=O)O; αMeL = CC(C)C[C@](C)(N)C(=O)O; Nle = CCCC[C@H](N)C(=O)O; Orn = NCCC[C@H](N)C(=O)O; AEEA = NCCOCCOCC(=O)O
Experiments:
[1] = biological target: T1, rat APJ receptor (Rattus norvegicus, UniProt Q9JHG3); test: [35S] GTPγS assay, rat APJ receptor; format: biochemical
T1 construct: expressed in transfected cells
T1 sequence (Q9JHG3 1-377): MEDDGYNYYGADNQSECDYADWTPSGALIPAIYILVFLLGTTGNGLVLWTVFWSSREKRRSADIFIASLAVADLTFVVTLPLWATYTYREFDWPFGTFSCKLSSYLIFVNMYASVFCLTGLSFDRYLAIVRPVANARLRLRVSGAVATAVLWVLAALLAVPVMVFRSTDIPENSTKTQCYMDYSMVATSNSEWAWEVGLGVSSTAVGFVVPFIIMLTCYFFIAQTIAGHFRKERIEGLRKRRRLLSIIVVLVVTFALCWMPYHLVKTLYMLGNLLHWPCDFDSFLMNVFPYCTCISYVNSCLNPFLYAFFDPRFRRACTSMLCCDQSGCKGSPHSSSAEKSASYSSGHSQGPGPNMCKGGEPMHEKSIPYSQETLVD
Description: The membranes were incubated with modified peptides in the assay buffer. […] Bound [^35S] GTPγS was separated from free radiolabel by filtration. The filter bound radioactivity was determined by liquid scintillation counting.

[2] = In vitro stability in rat plasma; format: in vitro ADME
Outline: (§1)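 High resolution LC-MS of the supernatant gave remaining peptide. Samples came from 37° C. incubations of 5 μM apelin peptide in rat plasma or liver or kidney homogenate over 4 hr, stopped with methanol plus internal standard.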

[3] = In vitro stability in rat liver homogenate; format: in vitro ADME; settings: tissue homogenate
Outline: as §1

[4] = In vitro stability in rat kidney homogenate; format: in vitro ADME; settings: rat, tissue homogenate
Outline: as §1

[5] = rat APJ receptor, read-out: EC50 Rat APJ Receptor
[6] = Table 16, read-out: EC50 Rat APJ Receptor

Compound	EC50 [1, 5] [nM]	remaining at 4 h, 5 μM [2] [%]	remaining at 4 h, 5 μM [3] [%]	remaining at 4 h, 5 μM [4] [%]	EC50 [1, 6] [nM]
CCCCCCCCCCCCCCCC(=O)N[C@@H](CCC(=O)NCCOCCOCC(=O)NCCOCCOCC(=O)N[C@H](CCC(N)=O)C(=O)N[C@@H](CCCNC(=N)N)C(=O)N1CCC[C@H]1C(=O)N(C)[C@@H](CCCNC(=N)N)C(=O)N[C@@H](CC1CCCCC1)C(=O)N[C@@H](CO)C(=O)N[C@@H](Cc1c[nH]cn1)C(=O)N[C@@H](CCCCN)C(=O)NCC(=O)N1[C@H](C(=O)N[C@@H](CCCC)C(=O)N[C@@H](CC(=O)O)Cc2ccccc2)C[C@@H]2CCCC[C@@H]21)C(=O)O [compound 573] ({Palmitoyl-γGlu-AEEA-AEEA}-[dQ]RP[NMeR][Cha]SHKG[Oic][Nle][d(β3hF)]-OH)	4.25	79	59	27	–
CC(=O)N[C@@H](CCCCNC(=N)N)C(=O)N[C@H](CCCNC(=N)N)C(=O)N[C@@H](CCC(N)=O)C(=O)N[C@@H](CCCCNC(=N)N)C(=O)N1CCC[C@H]1C(=O)N[C@@H](CCC(=O)O)C(=O)N(C)[C@@H](CC(C)C)C(=O)N[C@@H](CO)C(=O)N[C@@H](Cc1c[nH]cn1)C(=O)N[C@@H](CCCCN)C(=O)NCC(=O)N1[C@H](C(=O)N[C@@H](Cc2ccc(I)cc2)C(=O)N2CCC[C@H]2C(=O)N[C@H](Cc2ccc(-c3ccccc3)cc2)C(=O)O)C[C@@H]2CCCC[C@@H]21 [compound 79] (Ac-[hArg][dR]Q[hArg]PE[NMeL]SHKG[Oic][Phe(4-I)]P[dBip]-OH)	0.341	> 90	< 1	1.3	–
CCCCCCCCCCCCC(=O)N[C@@H](CCC(=O)NCCOCCOCC(=O)NCCOCCOCC(=O)N[C@@H](CCC(N)=O)C(=O)N[C@@H](CCCNC(=N)N)C(=O)N1CCC[C@H]1C(=O)N[C@@H](CCCCNC(=N)N)C(=O)N[C@@H](CC1CCCCC1)C(=O)N[C@@H](CO)C(=O)N[C@@H](Cc1c[nH]cn1)C(=O)N[C@@H](CCCCN)C(=O)NCC(=O)N1[C@H](C(=O)N[C@@H](CCCC)C(=O)N2CCC[C@H]2C(=O)N[C@@H](Cc2ccc(Cl)cc2)C(=O)O)C[C@@H]2CCCC[C@@H]21)C(=O)O [compound 308] ({Tridecanoyl-γGlu-AEEA-AEEA}-QRP[hArg][Cha]SHKG[Oic][Nle]P[Phe(4-Cl)]-OH)	–	76	6.2	< 1	0.18
CCCCCCCCCCCCC(=O)N[C@@H](CCC(=O)NCCOCCOCC(=O)NCCOCCOCC(=O)N[C@@H](CCCN)C(=O)N[C@@H](Cc1ccccc1)C(=O)N[C@@H](CCCCNC(=N)N)C(=O)N[C@@H](CCCCNC(=N)N)C(=O)N[C@@H](CCC(N)=O)C(=O)N(C)[C@@H](CCCNC(=N)N)C(=O)N1CCC[C@H]1C(=O)N(C)[C@@H](CCCNC(=N)N)C(=O)N[C@@H](CC1CCCCC1)C(=O)N[C@@H](CO)C(=O)N[C@@H](Cc1c[nH]cn1)C(=O)N[C@@H](CCCCN)C(=O)NCC(=O)N1[C@H](C(=O)N[C@@H](CCCC)C(=O)N2CCC[C@H]2C(=O)N[C@@H](Cc2ccc(Cl)cc2)C(=O)O)C[C@@H]2CCCC[C@@H]21)C(=O)O [compound 297] ({Tridecanoyl-γGlu-AEEA-AEEA}-[Orn]F[hArg][hArg]Q[NMeR]P[NMeR][Cha]SHKG[Oic][Nle]P[Phe(4-Cl)]-OH)	1.02	> 90	40.3	< 1	–
CCCCCCCCCCCCC(=O)N[C@@H](CCC(=O)NCCOCCOCC(=O)NCCOCCOCC(=O)N[C@@H](CCC(N)=O)C(=O)N(C)[C@@H](CCCNC(=N)N)C(=O)N[C@@](C)(CC(C)C)C(=O)N[C@@H](CO)C(=O)N[C@@H](Cc1c[nH]cn1)C(=O)N[C@@H](CCCCN)C(=O)NCC(=O)N1[C@H](C(=O)N[C@@H](CCCC)C(=O)N2CCC[C@H]2C(=O)N[C@@H](Cc2ccc(Cl)cc2)C(=O)O)C[C@@H]2CCCC[C@@H]21)C(=O)O [compound 397] ({Tridecanoyl-γGlu-AEEA-AEEA}-Q[NMeR][αMeL]SHKG[Oic][Nle]P[Phe(4-Cl)]-OH)	–	87	2	1	16.5
CCCCCCCCCCCCC(=O)N[C@@H](CCC(=O)NCCOCCOCC(=O)NCCOCCOCC(=O)N[C@@H](CCCCNC(=N)N)C(=O)N[C@@H](CCC(N)=O)C(=O)N[C@@H](CCCCNC(=N)N)C(=O)N1CCC[C@H]1C(=O)N(C)[C@@H](CCCNC(=N)N)C(=O)N[C@@H](CC1CCCCC1)C(=O)N[C@@H](CO)C(=O)N[C@@H](Cc1c[nH]cn1)C(=O)N[C@@H](CCCCN)C(=O)NCC(=O)N1[C@H](C(=O)N[C@@H](CCCC)C(=O)N2CCC[C@H]2C(=O)N[C@@H](Cc2ccc(Cl)cc2)C(=O)O)C[C@@H]2CCCC[C@@H]21)C(=O)O [compound 310] ({Tridecanoyl-γGlu-AEEA-AEEA}-[hArg]Q[hArg]P[NMeR][Cha]SHKG[Oic][Nle]P[Phe(4-Cl)]-OH)	0.364	> 90	15	1	–

Reference: patent US11807693B2 (priority 2014, dated 2023)
